Reference: PubChem BioAssay (NCI)
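Results reflect a 48-hour exposure of cells in 96-well plates to compound at five concentrations. Here, GI50 denotes the concentration required for 50% inhibition of growth. At the TGI there is no net growth.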

Legend:
Assay in all cases: NCI anticancer screen, dose series, 48 h
MDA-MB-231 breast = test system: MDA-MB-231 breast
786-0 renal = test system: 786-0 renal
MALME-3M melanoma = test system: MALME-3M melanoma
UACC-257 melanoma = test system: UACC-257 melanoma
MOLT-4 leukemia = test system: MOLT-4 leukemia
NCI-H226 lung = test system: NCI-H226 lung
NCI-H23 lung = test system: NCI-H23 lung
EKVX NSCLC = test system: EKVX NSCLC
HOP-92 NSCLC = test system: HOP-92 NSCLC
HL-60(TB) leukemia = test system: HL-60(TB) leukemia
KM12 colon = test system: KM12 colon
HCC-2998 colon = test system: HCC-2998 colon
SF-268 CNS = test system: SF-268 CNS
K-562 leukemia = test system: K-562 leukemia
NCI-H522 lung = test system: NCI-H522 lung
UO-31 renal = test system: UO-31 renal
PC-3 prostate = test system: PC-3 prostate
NCI/ADR-RES ovarian = test system: NCI/ADR-RES ovarian
CCRF-CEM leukemia = test system: CCRF-CEM leukemia
A498 renal = test system: A498 renal
HCT-15 colon = test system: HCT-15 colon
OVCAR-8 ovarian = test system: OVCAR-8 ovarian
MDA-MB-435 = test system: MDA-MB-435
COLO 205 colon = test system: COLO 205 colon
SK-MEL-5 melanoma = test system: SK-MEL-5 melanoma
RXF 393 renal = test system: RXF 393 renal
TK-10 renal = test system: TK-10 renal
MCF7 breast = test system: MCF7 breast
HT29 colon = test system: HT29 colon
NCI-H460 lung = test system: NCI-H460 lung
CAKI-1 renal = test system: CAKI-1 renal
M14 melanoma = test system: M14 melanoma
OVCAR-4 ovarian = test system: OVCAR-4 ovarian
SNB-75 CNS = test system: SNB-75 CNS
SF-539 CNS = test system: SF-539 CNS
DU-145 prostate = test system: DU-145 prostate
T-47D breast = test system: T-47D breast
BT-549 breast = test system: BT-549 breast
HOP-62 NSCLC = test system: HOP-62 NSCLC
IGROV1 ovarian = test system: IGROV1 ovarian
SN12C renal = test system: SN12C renal
HCT-116 colon = test system: HCT-116 colon
HS 578T breast = test system: HS 578T breast
SF-295 CNS = test system: SF-295 CNS
A549 NSCLC = test system: A549 NSCLC
LOX IMVI melanoma = test system: LOX IMVI melanoma
OVCAR-5 ovarian = test system: OVCAR-5 ovarian
RPMI-8226 leukemia = test system: RPMI-8226 leukemia
SW-620 colon = test system: SW-620 colon
UACC-62 melanoma = test system: UACC-62 melanoma
SNB-19 CNS = test system: SNB-19 CNS
SK-MEL-28 melanoma = test system: SK-MEL-28 melanoma
U251 CNS = test system: U251 CNS
SK-OV-3 ovarian = test system: SK-OV-3 ovarian
OVCAR-3 ovarian = test system: OVCAR-3 ovarian
ACHN renal = test system: ACHN renal

## C[C@@H](Oc1cc(-n2cnc3ccc(OCC4CCN(C)CC4)cc32)sc1C(N)=O)c1ccccc1C(F)(F)F
MDA-MB-231 breast
  GI50: 144 nM
  TGI: 1980 nM
786-0 renal
  GI50: 523 nM
  TGI: 4240 nM
MALME-3M melanoma
  GI50: 2790 nM
  TGI: 6970 nM
UACC-257 melanoma
  GI50: 179 nM
  TGI: 4510 nM
MOLT-4 leukemia
  GI50: 91.6 nM
  TGI: 2980 nM
NCI-H226 lung
  GI50: 1550 nM
  TGI: 6160 nM
NCI-H23 lung
  GI50: 118 nM
  TGI: 3370 nM
EKVX NSCLC
  GI50: 653 nM
  TGI: 5040 nM
HOP-92 NSCLC
  GI50: 307 nM
  TGI: 3430 nM
HL-60(TB) leukemia
  GI50: 70.8 nM
  TGI: 1080 nM
KM12 colon
  GI50: 67.1 nM
  TGI: 991 nM
HCC-2998 colon
  GI50: 85.9 nM
  TGI: 2980 nM
SF-268 CNS
  GI50: 140 nM
  TGI: 3860 nM
K-562 leukemia
  GI50: 83.2 nM
  TGI: 3310 nM
NCI-H522 lung
  GI50: 47.2 nM
  TGI: 236 nM
UO-31 renal
  GI50: 948 nM
  TGI: 4330 nM
PC-3 prostate
  GI50: 114 nM
  TGI: 4080 nM
NCI/ADR-RES ovarian
  GI50: 477 nM
  TGI: 3870 nM
CCRF-CEM leukemia
  GI50: 67.3 nM
  TGI: 3300 nM
A498 renal
  GI50: 295 nM
  TGI: 1560 nM
HCT-15 colon
  GI50: 126 nM
  TGI: 3200 nM
OVCAR-8 ovarian
  GI50: 89.6 nM
  TGI: 2850 nM
MDA-MB-435
  GI50: 39 nM
  TGI: 95.9 nM
COLO 205 colon
  GI50: 75.2 nM
  TGI: 401 nM
SK-MEL-5 melanoma
  GI50: 217 nM
  TGI: 2950 nM
RXF 393 renal
  GI50: 87.9 nM
  TGI: 3320 nM
TK-10 renal
  GI50: 427 nM
  TGI: 3980 nM
MCF7 breast
  GI50: 65.1 nM
  TGI: 3180 nM
HT29 colon
  GI50: 72.1 nM
  TGI: 2630 nM
NCI-H460 lung
  GI50: 87.2 nM
  TGI: 3100 nM
CAKI-1 renal
  GI50: 1910 nM
  TGI: 5230 nM
M14 melanoma
  GI50: 87.9 nM
  TGI: 1250 nM
OVCAR-4 ovarian
  GI50: 699 nM
  TGI: 4690 nM
SNB-75 CNS
  GI50: 85.3 nM
  TGI: 1420 nM
SF-539 CNS
  GI50: 144 nM
  TGI: 1080 nM
DU-145 prostate
  GI50: 64.3 nM
  TGI: 246 nM
T-47D breast
  GI50: 2690 nM
  TGI: 6030 nM
BT-549 breast
  GI50: 1370 nM
  TGI: 4750 nM
HOP-62 NSCLC
  GI50: 99.4 nM
  TGI: 3110 nM
IGROV1 ovarian
  GI50: 217 nM
  TGI: 4410 nM
SN12C renal
  GI50: 319 nM
  TGI: 4280 nM
HCT-116 colon
  GI50: 99.7 nM
  TGI: 3180 nM
HS 578T breast
  GI50: 631 nM
  TGI: 5020 nM
SF-295 CNS
  GI50: 138 nM
  TGI: 3390 nM
A549 NSCLC
  GI50: 131 nM
  TGI: 2700 nM
LOX IMVI melanoma
  GI50: 106 nM
  TGI: 3270 nM
OVCAR-5 ovarian
  GI50: 114 nM
  TGI: 3810 nM
RPMI-8226 leukemia
  GI50: 133 nM
  TGI: 5890 nM
SW-620 colon
  GI50: 64.8 nM
  TGI: 3500 nM
UACC-62 melanoma
  GI50: 96.4 nM
  TGI: 3020 nM
SNB-19 CNS
  GI50: 163 nM
  TGI: 4560 nM
SK-MEL-28 melanoma
  GI50: 637 nM
  TGI: 4580 nM
U251 CNS
  GI50: 110 nM
  TGI: 3400 nM
SK-OV-3 ovarian
  GI50: 143 nM
  TGI: 2250 nM
OVCAR-3 ovarian
  GI50: 80.1 nM
  TGI: 2860 nM
ACHN renal
  GI50: 801 nM
  TGI: 4520 nM
